Measured values as given in patent US20220281846A1, “COMPOUNDS AND COMPOSITIONS FOR THE TREATMENT OF RESPIRATORY DISEASES” (THE UNIVERSITY OF MELBOURNE, priority 2018, published 2022).

What was measured:
ERBB4/HER4 = molecular target: T1, ERBB4/HER4 (Homo sapiens, UniProt Q15303); experiment: Kinase inhibition assay (HotSpot), ERBB4/HER4; format: biochemical; details: 10 μM ATP, 10-dose IC50 mode; read-out: Compound IC50 (M) ERBB4/HER4
T1 construct: purchased Reaction Biology Corp

[1] = system: TGF-β-induced IL-11 in primary human parenchymal fibroblast cells (pFbs); experiment: Human parenchymal fibroblast cell assay, TGF-β-induced IL-11 (ELISA); format: cell-based; details: compounds 0.1-10 μM 30 min prior to TGF-β1, 16-24 hours, 4.00* is assigned to compounds that failed to cause 50% or more inhibition at 10 µM, read-out: pIC50 IL-11 suppression (converted)
Method: Human Parenchymal Fibroblast Cell Assay
Primary human parenchymal fibroblast cells (pFbs) were cultured from parenchyma of lung resection specimens and from non-transplanted lungs of donors without chronic respiratory disease. pFbs were passaged in Dulbecco's Modified Eagle's Media (DMEM) containing 10% (v/v) heat-inactivated fetal calf serum (FCS), 15 mM HEPES, 0.2% (v/v) sodium bicarbonate, 2 mM L-glutamine, 1% (v/v) non-essential amino acids, 1% (v/v) sodium pyruvate, 2.5 μg/mL amphotericin, 5 IU/mL penicillin and 50 μg/mL streptomycin. In some experiments the human lung fibroblast cell line, MRC5 (sourced from ATTC) was used as indicated. The MRC5 line was maintained under the same conditions as described for the pFb.
Prior to experimentation, pFb were incubated in serum-free DMEM containing 0.25% bovine serum albumin (BSA) and insulin-transferrin-selenium-containing supplement (Monomed A; CSL, Parkville, Melbourne, Australia). The cells were incubated with small molecular CK1δ inhibitors (0.1-10 μM) for 30 min prior to […] TGF-β1 (R&D Systems, Minneapolis, Minn.) and the incubation continued for 16-24 hours prior to harvest of supernatant for detection of immunoreactive IL-11. Stock solutions were made as 10 mM in 100% DMSO and diluted to the required concentration in medium containing 0.1% DMSO (final concentration).
Supernatants were collected for measurement of IL-11 (R&D DuoSet, DY218) by ELISA following the manufacturers' instructions. Generally, capture antibodies were initially diluted to the recommended concentrations using PBS buffer, and then used to coat the wells of 96-well microplates (Greiner, #655061) by adding 50 μL/well and incubated overnight at room temperature. Next day, solutions were discarded and wells were washed 3 times with wash buffer (PBS containing 0.1% (v/v) Tween-20) prior to the addition of 200 μL of blocking solution (PBS containing 1% (v/v) BSA) for 1 hour to block non-specific sites. Plates were then washed 3 times with wash buffer and 50 μL of samples or standards were then added to wells and incubated for 2 hours at room temperature. After the incubation, plates were washed 3 times with wash buffer and 50 μL of detection antibodies were added to wells and incubated for 2 hours at room temperature. Plates were then washed 3 times before adding streptavidin-conjugated horseradish peroxidase (at the recommended concentrations) for 45 min. Plates were then washed 5 times with wash buffer and 100 μL TMB substrate solution (equal parts A and B, BD Biosciences) was added to each well until sufficient signals emerged. The reactions were inactivated by adding 100 μL sulphuric acid (2M H2SO4). The absorbance was measured at 450 nm using the Multiskan Ascent® plate reader. The absorbance of the cytokine standards was fitted to a logistic equation, allowing the concentrations of cytokine in samples to be determined.
PIC50 values (the negative log of the concentration suppressing IL-11 level by 50%) for inhibition of TGF-β-induced IL-11 were interpolated from the linear regression of log concentration small molecule versus IL-11 level (Table 4 and FIG. 2).

T1 sequence (Q15303 26-1308): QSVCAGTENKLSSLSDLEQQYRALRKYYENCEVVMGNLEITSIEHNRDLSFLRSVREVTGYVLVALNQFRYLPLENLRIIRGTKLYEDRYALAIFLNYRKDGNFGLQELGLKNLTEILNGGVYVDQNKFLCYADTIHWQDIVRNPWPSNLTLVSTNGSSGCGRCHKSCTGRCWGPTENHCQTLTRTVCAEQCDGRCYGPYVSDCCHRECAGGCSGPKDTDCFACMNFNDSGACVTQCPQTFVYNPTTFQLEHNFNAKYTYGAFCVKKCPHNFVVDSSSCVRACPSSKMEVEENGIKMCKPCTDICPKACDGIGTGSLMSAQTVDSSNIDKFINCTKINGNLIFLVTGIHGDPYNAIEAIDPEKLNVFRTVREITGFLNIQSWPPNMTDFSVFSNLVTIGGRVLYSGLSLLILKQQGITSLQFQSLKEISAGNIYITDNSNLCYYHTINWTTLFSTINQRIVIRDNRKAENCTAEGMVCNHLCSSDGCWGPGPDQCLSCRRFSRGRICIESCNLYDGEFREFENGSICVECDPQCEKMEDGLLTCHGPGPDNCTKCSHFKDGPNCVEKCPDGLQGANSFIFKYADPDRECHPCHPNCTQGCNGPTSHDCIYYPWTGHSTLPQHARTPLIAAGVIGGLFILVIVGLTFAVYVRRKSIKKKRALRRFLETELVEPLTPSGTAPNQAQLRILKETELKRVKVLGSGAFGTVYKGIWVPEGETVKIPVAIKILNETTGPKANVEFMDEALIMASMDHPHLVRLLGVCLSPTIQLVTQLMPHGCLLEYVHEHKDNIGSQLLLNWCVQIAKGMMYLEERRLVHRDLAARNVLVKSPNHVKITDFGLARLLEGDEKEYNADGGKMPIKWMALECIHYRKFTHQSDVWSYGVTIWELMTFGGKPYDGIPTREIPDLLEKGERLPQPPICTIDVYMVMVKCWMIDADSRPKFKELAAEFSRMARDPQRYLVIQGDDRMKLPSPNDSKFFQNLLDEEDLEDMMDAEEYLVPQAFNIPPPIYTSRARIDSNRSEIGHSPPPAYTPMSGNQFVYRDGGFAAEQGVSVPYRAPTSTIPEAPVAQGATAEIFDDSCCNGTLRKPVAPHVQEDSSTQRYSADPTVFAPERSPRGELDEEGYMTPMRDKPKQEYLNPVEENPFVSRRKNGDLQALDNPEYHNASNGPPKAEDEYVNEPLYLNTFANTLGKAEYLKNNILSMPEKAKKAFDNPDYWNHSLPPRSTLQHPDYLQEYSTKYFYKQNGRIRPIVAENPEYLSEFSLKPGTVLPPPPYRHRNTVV

`Nc1nccc(-c2c(-c3ccc(F)cc3)ncn2C2CCC(F)(F)CC2)n1` [ZH3-138, 4-(1-(4,4-Difluorocyclohexyl)-4-(4-fluorophenyl)-1H-imidazol-5-yl)pyrimidin-2-amine] gave an IC50 (ERBB4/HER4) of 9.98e-06 M and an IC50 [1] of 20 µM.
